Measured values: PMC11943723, “Synthesis and Biological Activity of Glycosyl Thiazolyl Disulfides Based on Thiacarpine, an Analogue of the Cytotoxic Alkaloid Polycarpine from the Ascidian Polycarpa aurata” (Marine Drugs, 2025)
In brackets after ≈: the same amount, converted by molar mass. Counter-ions that a name gives are not always drawn. Like-named read-outs stand apart in the source and are kept apart here.

Experiments:
HeLa (cervical cancer) = assay: MTT cell viability assay, HeLa; format: cell-based, human; conditions: Homo sapiens, HeLa, 24 h, 24 h incubation, read-out: Cytotoxicity EC50, HeLa
From the text: (§1) Human erythrocytes were purchased from the blood transfusion station Vladivostok. Human breast cancer cell lines MCF-7^HTB−22, and MDA-MB-231^CRM-HTB−26, liver hepatocellular carcinoma Hep G2^HB−8065, prostate adenocarcinoma PC-3^CRL−1435, cervical adenocarcinoma HeLa^CRM-CCL−2, and normal bronchial epithelial cells BEAS-2B ^CRL−3588 were received from ATCC (Manassas, VA, USA).
(§2) DMEM medium (Biolot, Russia) with 1% penicillin/streptomycin and 10% fetal bovine serum (FBS) (Biolot, Russia) was used for cultivation of Hep G2, PC-3, HeLa, and Beas-2b. MEM medium (Biolot, Russia) with 1% penicillin/streptomycin sulfate (Biolot, Russia) and FBS (Biolot, Russia) to a final concentration of 10% for MCF-7 and MDA-MB-231 cells.
(§3) The effect of the studied compounds on the viability of human cancer and normal cells was determined using the MTT (3-[4,5-dimethylthiazol-2-yl]-2,5 diphenyl tetrazolium bromide) assay. Briefly, 6 × 10^3 cells per well were seeded into 96-well plates and incubated for 24 h for adhesion, followed by incubation for 24 h with different concentrations of the substances. After incubation, the medium containing the test substances was replaced with 100 µL of fresh medium. Then, 10 μL of MTT (Sigma-Aldrich, Madison, WI, USA) reagent (5 mg/mL MTT in PBS) was added into the cells and the plates for additional 4 h. Thereafter, 100 µL of SDS-HCl solution (1 g SDS/10 mL dH2O/17 µL 6N HCl) was added to each well and incubated for 18 h. The absorbance of the converted formazan dye was measured using a Multiskan FC microplate photometer (Thermo Scientific, Waltham, MA, USA) at a wavelength of 570 nm. All experiments were performed in triplicate. Cytotoxic activity was expressed as a percentage of the cell viability.

[1] = test system: Hep G2 (hepatocellular carcinoma); assay: MTT cell viability assay, Hep G2; format: cell-based; conditions: Homo sapiens, HepG2, 24 h incubation, read-out: Cytotoxicity EC50, Hep G2
From the text: as §1, §2, §3

[2] = test system: MDA-MB-231 (triple-negative breast cancer); assay: MTT cell viability assay, MDA-MB-231; format: cell-based, human; conditions: Homo sapiens, MDA-MB-231, 24 h, 24 h incubation, read-out: Cytotoxicity EC50, MDA-MB-231 (TNBC)
From the text: as §1, §2, §3

[3] = MTT cell viability assay, BEAS-2B normal cells; format: cell-based; conditions: human, BEAS-2B normal bronchial epithelial cells, 24 h incubation, read-out: Cytotoxicity EC50, BEAS 2B
From the text: as §1, §2, §3

Human erythrocytes = assay: Hemolytic activity (destruction of erythrocyte membranes); format: cell-based
From the text: as §1

[4] = test system: Candida albicans (KMM 455); assay: Antimicrobial activity, inhibition of microbial growth (optical density); format: cell-based; conditions: 18 h, OD 620 nm, read-out: Inhibition of Microbial Growth MIC50, C. albicans
Procedure: (§4) The antimicrobial activity of the compounds was determined against Gram-positive bacteria Staphylococcus aureus (ATCC 21027), Gram-negative bacteria Escherichia coli (VKPM B-7935), and yeast-like fungi Candida albicans (KMM 455) (all test strains were obtained from the Collection of Marine Microorganisms KMM PIBOC FEB RAS) in liquid nutrient media. Test cultures of S. aureus, E. coli, and C. albicans were grown in Petri dishes on a solid nutrient medium (Mueller–Hinton broth with the addition of agar—16.0 g/L) at 37 °C for 24 h. The antimicrobial activity of the compounds was determined by the change in optical density and expressed as the percentage of bacterial inhibition at different concentrations of substances added to the well of the microorganism suspension, compared to the control. The compounds were dissolved in dimethyl sulfoxide (DMSO) at a concentration of 10 mM and stored at −20 °C. Before the experiment, the solution of substances in DMSO was diluted with PBS at a concentration of 0.5–100.0 µM and added to the wells so that the concentration of DMSO in the culture medium was less than 1%. Antimicrobial activity was determined in 96-well microplates in a liquid Mueller–Hinton nutrient medium. For S. aureus, E. coli, and C. albicans, a bacterial suspension of 10^6 CFU in 1 mL of the media was used, 90 μL was added to each well of the microplates and then incubated in a thermostatted shaker at 37 °C for 18 h. Inhibition of microorganism growth was assessed by measuring the optical density at 620 nm using a microplate reader (Thermo Fisher Scientific, Waltham, MA, USA) after preliminary shaking of the plates for 10 min. All experiments were performed in triplicate. Gentamicin (S. aureus and E. coli) and nitrofungin (C. albicans) were used as positive controls, and 1% DMSO in PBS was used as a negative control.

[5] = test system: Escherichia coli (VKPM B-7935); assay: as above; format: cell-based; conditions: 18 h, OD 620 nm, read-out: Inhibition of Microbial Growth MIC50, E. coli
Procedure: as §4

[6] = test system: Staphylococcus aureus (ATCC 21027); assay: as above; format: cell-based; conditions: 18 h, OD 620 nm, read-out: Inhibition of Microbial Growth MIC50, S. aureus
Procedure: as §4

[7] = test system: Candida albicans (KMM 455); assay: Inhibition of biofilm formation (MTT); format: cell-based; conditions: 24 h
Procedure: (§5) Biofilm formation was performed according to the method described by Walencka et al., with minor modifications. The compounds were dissolved in dimethyl sulfoxide (DMSO) at a concentration of 10 mM and stored at −20 °C. Before the experiment, the solution of substances in DMSO was diluted with PBS at a concentration of 0.5–100.0 µM and added to the wells so that the concentration of DMSO in the culture medium was less than 1%. Biofilm formation was assessed in 96-well microplates in a liquid Mueller–Hinton nutrient medium. For S. aureus, E. coli, and C. albicans, a bacterial suspension of 10^6 CFU in 1 mL of medium was used, 90 μL was added to each well of the microplates and then incubated in a thermostatted shaker at 37 °C for 24 h. After incubation, the suspension of planktonic microorganisms was removed from the plate and washed with PBS. Next, 100 μL of PBS and 10 μL of MTT (3-(4,5-dimethylthiazol-2-yl)-2,5-diphenyltetrazolium bromide, MTT reagent, Sigma) stock solution (5 mg/mL) were added to the wells and incubated for 3 h at 37 °C. After incubation, all the solution was removed from the wells, 100 μL of DMSO was added, and the plate was shaken for 10 min until all formazan crystals had dissolved. The absorption was measured using a plate reader (Thermo Fisher Scientific, Waltham, MA, USA) at a wavelength of 570 nm. The activity of the substances was assessed by the change in optical density compared with that of the control. All experiments were performed in triplicate. Gentamicin (S. aureus and E. coli) and nitrofungin (C. albicans) were used as positive controls, and 1% DMSO in PBS was used as a negative control.

[8] = test system: Escherichia coli (VKPM B-7935); assay: Inhibition of biofilm formation (MTT); format: cell-based; conditions: 24 h
Procedure: as §5

[9] = test system: Staphylococcus aureus (ATCC 21027); assay: Inhibition of biofilm formation (MTT); format: cell-based; conditions: 24 h
Procedure: as §5

HeLa cells = assay: Colony formation (clonogenic) assay; format: cell-based; conditions: Homo sapiens, 336 h, 14 days
Procedure: The effect of the test compounds on HeLa cell proliferation was analyzed using a clonogenic assay. Briefly, HeLa cells were cultured in 6-well plates at a density of 1 × 10^2 cells per well, and compounds were added at concentrations of 5 or 10 μM. Untreated culture medium was used as a control. […] Before fixation and staining, the medium was removed and the cells were washed twice with PBS. The colonies were then fixed with methanol for 25 min and stained with 0.5% crystal violet for 25 min at room temperature. The plates were then washed with water and air-dried.

[10] = Staphylococcus aureus, ATCC21027

Structure (SMILES) | MIC50 [4] [µM] | MIC50 ([4]; Candida albicans, KMM455) [µM] | MIC50 [5] [µM] | MIC50 ([5]; Escherichia coli) [µM] | MIC50 [6] [µM] | MIC50 [6, 10] [µM] | Inhibition of Biofilm Formation MIC50, C. albicans [7] [µM] | Inhibition of Biofilm Formation MIC50, E. coli [8] [µM] | Inhibition of Biofilm Formation MIC50, S. aureus [9] [µM] | EC50 (HeLa (cervical cancer)) [µM] | EC50 [1] [µM] | EC50 [2] [µM] | EC50 at 24 h [3] [µM] | Hemolytic activity, erythrocytes (Human erythrocytes) [µM] | inhibition at 10 µM (HeLa cells) [%] | inhibition at 5 µM (HeLa cells; 5 µM, read-out: Colony growth inhibition) [%]
CC(=O)O[C@@H]1[C@@H](OC(C)=O)[C@H](SSc2sc(N)nc2-c2ccc(Cl)cc2)OC[C@H]1OC(C)=O [Compound 4i, 5-[(2,3,4-Tri-O-acetyl-β-D-xylopyranosyl)disulfanyl]-2-amino-4-(4-chlorophenyl)thiazole] | – | 2.8 ± 0.3 (≈ 1.49 µg/mL) | – | 8.7 ± 0.9 (≈ 4.64 µg/mL) | – | 3.1 ± 0.3 (≈ 1.65 µg/mL) | 4.08 | – | 6.25 | > 25 | > 25 | > 25 | > 25 | > 25 | – | –
CC(=O)OC[C@H]1O[C@@H](SSc2sc(N)nc2-c2ccc(Cl)cc2)[C@H](OC(C)=O)[C@@H](OC(C)=O)[C@@H]1OC(C)=O [Compound 4d, 5-[(2,3,4,6-Tetra-O-acetyl-β-D-glucopyranosyl)disulfanyl]-2-amino-4-(4-chlorophenyl)thiazole] | – | 6.9 ± 0.9 (≈ 4.18 µg/mL) | – | 16.1 ± 1.7 (≈ 9.74 µg/mL) | – | 19.2 ± 2 (≈ 11.6 µg/mL) | 7.03 | – | – | > 25 | > 25 | 22.9 | 14.1 | – | – | –
CC(=O)OC[C@H]1O[C@@H](SSc2sc(N)nc2-c2ccc(Br)cc2)[C@H](OC(C)=O)[C@@H](OC(C)=O)[C@@H]1OC(C)=O [Compound 4c, 5-[(2,3,4,6-Tetra-O-acetyl-β-D-glucopyranosyl)disulfanyl]-2-amino-4-(4-bromophenyl)thiazole] | – | 7.1 ± 0.7 (≈ 4.61 µg/mL) | – | 6.9 ± 0.5 (≈ 4.48 µg/mL) | – | 2.3 ± 0.3 (≈ 1.49 µg/mL) | – | 8.04 | 7.94 | 19.4 | 24.3 | 21.7 | 15.5 | > 25 | 76 | –
COc1ccc(-c2nc(N)sc2SS[C@@H]2OC[C@@H](OC(C)=O)[C@H](OC(C)=O)[C@H]2OC(C)=O)cc1 [Compound 4f, 5-[(2,3,4-Tri-O-acetyl-β-D-xylopyranosyl)disulfanyl]-2-amino-4-(4-methoxyphenyl)thiazole] | – | 34.1 ± 2.1 (≈ 18 µg/mL) | – | 39.5 ± 4 (≈ 20.9 µg/mL) | – | 32.1 ± 3.7 (≈ 17 µg/mL) | – | – | – | 20.4 | 22.6 | 22.9 | 23.5 | – | 78 | ~16

Second part, led by results:

MIC50 [4] [µM] | MIC50 ([4]; Candida albicans, KMM455) [µM] | MIC50 [5] [µM] | MIC50 ([5]; Escherichia coli) [µM] | MIC50 [6] [µM] | MIC50 [6, 10] [µM] | Inhibition of Biofilm Formation MIC50, C. albicans [7] [µM] | Inhibition of Biofilm Formation MIC50, E. coli [8] [µM] | Inhibition of Biofilm Formation MIC50, S. aureus [9] [µM] | Structure (SMILES) | EC50 (HeLa (cervical cancer)) [µM] | EC50 [1] [µM] | EC50 [2] [µM] | EC50 at 24 h [3] [µM] | Hemolytic activity, erythrocytes (Human erythrocytes) [µM] | inhibition at 10 µM (HeLa cells) [%] | inhibition at 5 µM (HeLa cells; 5 µM, read-out: Colony growth inhibition) [%]
1.56 | 1.6 ± 0.1 | 3.08 | 3.1 ± 0.3 | 1.15 | 1.2 ± 0.1 | 3.21 | 8.92 | – | Cl.Nc1nc(-c2ccc(Br)cc2)c(SS[C@@H]2OC[C@@H](O)[C@H](O)[C@H]2O)s1 [Compound 5h, 5-[(β-D-xylopyranosyl)disulfanyl]-2-amino-4-(4-bromophenyl)thiazole hydrochloride] | > 25 | > 25 | > 25 | 23.5 | > 25 | – | –
– | 3.1 ± 2.3 | – | 6.6 ± 0.5 | – | 2.5 ± 0.2 | – | 6.00 | – | Nc1nc(-c2ccc(Cl)cc2)c(SS[C@@H]2O[C@H](CO)[C@@H](O)[C@H](O)[C@H]2O)s1 [Compound 5d, 5-[(β-D-glucopyranosyl)disulfanyl]-2-amino-4-(4-clorophenyl)thiazole hydrochloride] | > 25 | > 25 | > 25 | > 25 | > 25 | – | –
– | 15.9 ± 1.1 | – | 38 ± 3 | – | 34.5 ± 3 | – | 5.62 | – | Cc1ccc(-c2nc(N)sc2SS[C@@H]2OC[C@@H](O)[C@H](O)[C@H]2O)cc1.Cl [Compound 5j, 5-[(β-D-xylopyranosyl)disulfanyl]-2-amino-4-(p-tolyl)thiazole hydrochloride] | > 25 | > 25 | > 25 | > 25 | – | – | –
– | 1.6 ± 0.2 | – | 5 ± 0.5 | – | 3 ± 0.2 | 8.69 | – | – | Cl.Nc1nc(-c2ccc(Br)cc2)c(SS[C@@H]2O[C@H](CO)[C@@H](O)[C@H](O)[C@H]2O)s1 [Compound 5c, 5-[(β-D-glucopyranosyl)disulfanyl]-2-amino-4-(4-bromophenyl)thiazole hydrochloride] | > 25 | > 25 | > 25 | > 25 | > 25 | – | –
